Data: patent US8119666B2, “1,2,5-thiazolidine derivatives useful for treating conditions mediated by protein tyrosine phosphatases (PTPase)” (Novartis AG, priority 2005, dated 2012)

Biological target: T1, human PTP-1B (Homo sapiens, UniProt P18031)
T1 construct: recombinant human PTP-1B[1-298] or PTP-1B[1-322]
T1 sequence (P18031 1-298 limits assumed): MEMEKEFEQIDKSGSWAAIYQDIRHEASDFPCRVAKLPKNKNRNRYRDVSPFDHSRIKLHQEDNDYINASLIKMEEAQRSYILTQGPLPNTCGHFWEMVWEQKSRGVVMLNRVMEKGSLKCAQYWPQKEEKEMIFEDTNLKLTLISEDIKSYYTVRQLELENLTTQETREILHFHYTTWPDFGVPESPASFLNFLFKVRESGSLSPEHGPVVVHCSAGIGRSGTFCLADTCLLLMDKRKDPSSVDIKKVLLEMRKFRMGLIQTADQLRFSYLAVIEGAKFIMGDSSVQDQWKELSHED
Experiment: PTP-1B inhibitory activity in vitro (IC50)
Type: biochemical
Details: inhibitory activity to human PTP-1B; which of the described assay formats was used is not stated
Description: Assessment of human PTP-1B (hPTP-1B) activity in the presence of various agents is determined by measuring the amount of inorganic phosphate released from a phosphopeptide substrate using a 96-well microtiter plate format. The assay (100 μL) is performed in an assay buffer comprised of 50 mM TRIS (pH 7.5), 50 mM NaCl, 3 mM DTT at ambient temperature. The assay is typically performed in the presence of 0.4% dimethyl sulfoxide (DMSO). However, concentrations as high as 10% are used with certain poorly soluble compounds. […] Inorganic phosphate, a product of the enzyme reaction, is quantitiated after 15 min as the green color resulting from complexing with the Malichite reagent and is determined as an A620 using a Molecular Devices (Sunnyvale, Calif.) SpectraMAX Plus spectrophotometer. […] Activity is defined as the net change in absorbance resulting from the activity of the uninhibited hPTP-1B[1-411] minus that of a tube with acid-inactivated hPTP-1B[1-411].
Alternatively, the assessment of human PTP-1B activity in the presence of various agents may be determined by measuring the hydrolysis products of known competing substrates. For example, cleavage of substrate para-nitrophenylphosphate (pNPP) results in the release of the yellow-colored para-nitrophenol (pNP) which can be monitored in real time using a spectrophotometer. […]

IC50 | SMILES
126 nM | CS(=O)(=O)Oc1c(Cl)cccc1Cc1ccc(N2CC(=O)NS2(=O)=O)c(O)c1 [Example No. 52-1, Methanesulfonic acid 2-chloro-6-[3-hydroxy-4-(1,1,4-trioxo-1,2,5-thiadiazolidin-2-yl)-benzyl]-phenyl ester]
133 nM | COc1ccc(Cc2ccc(N3CC(=O)NS3(=O)=O)c(O)c2)c(OS(C)(=O)=O)c1 [Example No. 52-3, Methanesulfonic acid 2-[3-hydroxy-4-(1,1,4-trioxo-1,2,5-thiadiazolidin-2-yl)-benzyl]-5-methoxyphenyl ester]
